From patent US4198506A, “2-Carboxyalkyl-2,3-dihydro-6-mercapto-s-triazolo[4,3-b]-pyridazin-3-ones” (Bristol-Myers Company, priority 1979, dated 1980)
≈ marks a conversion by molar mass, not a printed value. Where two headings read alike, the source gives them in different places.

Key:
B. anthracis = assay: microbe, parasite or virus in culture; format: cell-based; conditions: Bacillus anthracis, table 2 (BB-S493); B. anthracis A9504
Shig. dysenteriae = assay: In vitro antibacterial activity (Steers' agar dilution MIC); format: cell-based; conditions: Shigella dysenteriae, table 2 (BB-S493); Shig dysenteriae
St. faecalis = assay: as above; format: cell-based; conditions: Enterococcus faecalis, table 2 (BB-S493); St. faecalis A9536; read-out: MIC
Pr. vulgaris = assay: as above; format: cell-based; conditions: Proteus vulgaris, table 2 (BB-S493), read-out: MIC
E. coli = assay: as above; format: cell-based; conditions: Escherichia coli, read-out: MIC
Source text: (§1) In vitro Antibacterial Activity of BB-S493 Compared with
(§2) BB-S479 and Cefamandole (Determined by Steers' Agar Dilu-
(§3) tion Method on Mueller-Hinton Agar Plate)
(§4) In vitro antibacterial activity of BB-S 525 compared with
(§5) BB-S 479 and cefamandole (determined by Steers' agar dilution
(§6) method on Mueller-Hinton agar plate)

Kl. pneumoniae = assay: as above; format: cell-based; conditions: Klebsiella pneumoniae, table 2 (BB-S493)
Source text: as §1, §2, §3, §4, §5, §6

Shig. sonnei = assay: as above; format: cell-based; conditions: Shigella sonnei, table 2 (BB-S493); Shig. sonnei A9516
Source text: as §1, §2, §3, §4, §5, §6

S. aureus = assay: as above; format: cell-based; conditions: Staphylococcus aureus, table 2 (BB-S493)
Source text: as §1, §2, §3, §4, §5, §6

Shig. flexneri = assay: as above; format: cell-based; conditions: Shigella flexneri; table 2 (BB-S493); Shig. flexneri A9684; read-out: MIC
Source text: as §1, §2, §3, §4, §5, §6

Sal. typhosa = assay: as above; format: cell-based; conditions: table 2 (BB-S493); Sal. typhosa A9498
Source text: as §1, §2, §3, §4, §5, §6

Ps. aeruginosa = assay: as above; format: cell-based; conditions: table 2 (BB-S493)
Pr. morganii = assay: as above; format: cell-based; conditions: Morganella morganii, table 2 (BB-S493), read-out: MIC
Serr. marcescens = assay: as above; format: cell-based; conditions: Serratia marcescens; table 2 (BB-S493); Serr. marcescens A20019; read-out: MIC
Pr. mirabilis = assay: as above; format: cell-based; conditions: Proteus mirabilis, table 2 (BB-S493), read-out: MIC
Pr. rettgeri = assay: as above; format: cell-based; conditions: Providencia rettgeri, table 2 (BB-S493); Pr. rettgeri A15167
Sal. enteritidis = assay: as above; format: cell-based; conditions: Salmonella enterica, table 2 (BB-S493), Sal. enteritidis A9531
Enterob. cloacae = assay: as above; format: cell-based; conditions: table 2 (BB-S493); Enterob. cloacae A9656; read-out: MIC
E. coli Juhl = assay: In vivo activity (Mice, sc); conditions: Escherichia coli, several determinations listed, read-out: PD50
Source text: (§7) |In vivo Activity of BB-[…] and Related Compounds (Mice, sc) | (PD50 (mgm./kg.)

S. aureus Smith = assay: In vivo activity (Mice, sc); conditions: Staphylococcus aureus, several determinations listed, read-out: PD50
Source text: as §7

NCC1=C(CC(=O)N[C@@H]2C(=O)N3C(C(=O)O)=C(CSc4ccc5nn(CC(=O)O)c(=O)n5n4)CS[C@H]23)CC=CC1 [BB-S493, 7-[(2-Aminomethyl-1,4-cyclohexadienyl)acetamido]3-(2-N-carboxymethyl-s-triazolo[4,5-b]pyridazin-3-on-6-ylthiomethyl)-3-cephem-4-carboxylic Acid] showed an MIC (B. anthracis) of 0.0125 µg/mL (≈ 0.0213 µM), an MIC (Shig. dysenteriae) of 0.05 µg/mL (≈ 0.0851 µM) and an MIC (St. faecalis) of 100 µg/mL (≈ 170 µM). For the same compound, the MIC (Pr. vulgaris; Pr. vulgaris A9436) was 0.4 µg/mL (≈ 0.681 µM), the MIC (Pr. vulgaris; Pr. vulgaris A9699) was 6.3 µg/mL (≈ 10.7 µM) and the MIC (E. coli; ATCC8739, table 2 (BB-S493), E. coli ATCC 8739) was 0.2 µg/mL (≈ 0.34 µM). It also gave an MIC (E. coli; table 2 (BB-S493), E. coli A9660) of 0.1 µg/mL (≈ 0.17 µM), an MIC (E. coli; table 2 (BB-S493), E. coli A15147) of 6.3 µg/mL (≈ 10.7 µM) and an MIC (E. coli; table 2 (BB-S493), E. coli A15810) of 0.2 µg/mL (≈ 0.34 µM). It also gave an MIC (E. coli; table 2 (BB-S493), E. coli BX-1373) of 0.4 µg/mL (≈ 0.681 µM), an MIC (E. coli; table 2 (BB-S493), E. coli Juhl A15119) of 0.2 µg/mL (≈ 0.34 µM) and an MIC (E. coli; table 2 (BB-S493), E. coli NIHJ) of 0.1 µg/mL (≈ 0.17 µM). For the same compound, the MIC (Kl. pneumoniae; Kl. pneumoniae A9678) was 0.4 µg/mL (≈ 0.681 µM), the MIC (Kl. pneumoniae; Kl. pneumoniae A9867) was 0.2 µg/mL (≈ 0.34 µM) and the MIC (Kl. pneumoniae; Kl. pneumoniae A9977) was 0.2 µg/mL (≈ 0.34 µM). It also gave an MIC (Kl. pneumoniae; Kl. pneumoniae A15130) of 0.2 µg/mL (≈ 0.34 µM), an MIC (Shig. sonnei) of 0.05 µg/mL (≈ 0.0851 µM) and an MIC (S. aureus; S. aureus A9497) of 0.2 µg/mL (≈ 0.34 µM). The MIC (S. aureus; S. aureus BX-1633 A9606) was 0.4 µg/mL (≈ 0.681 µM), the MIC (S. aureus; S. aureus Smith A9537) was 0.4 µg/mL (≈ 0.681 µM) and the MIC (Shig. flexneri) was 25 µg/mL (≈ 42.5 µM). The MIC (Sal. typhosa) was 0.1 µg/mL (≈ 0.17 µM), the MIC (Ps. aeruginosa; Pseudomonas aeruginosa, Ps. aeruginosa A9843, read-out: MIC) was > 100 µg/mL and the MIC (Ps. aeruginosa; Ps. aerugionsa A9930) was > 100 µg/mL. For the same compound, the MIC (Pr. morganii; Pr. morganii A9553) was > 100 µg/mL, the MIC (Pr. morganii; Pr. morganii A20031) was 0.4 µg/mL (≈ 0.681 µM) and the MIC (Serr. marcescens) was 100 µg/mL (≈ 170 µM). It also gave an MIC (Pr. mirabilis; Pr. mirabilis A9554) of 0.2 µg/mL (≈ 0.34 µM), an MIC (Pr. mirabilis; Pr. mirabilis A9900) of 0.2 µg/mL (≈ 0.34 µM) and an MIC (Pr. rettgeri) of 0.1 µg/mL (≈ 0.17 µM). The MIC (Sal. enteritidis) was 0.1 µg/mL (≈ 0.17 µM), the MIC (Enterob. cloacae) was 6.3 µg/mL (≈ 10.7 µM) and the ED50 (E. coli Juhl) was 0.27 mg/kg. The ED50 (S. aureus Smith) was 0.29 mg/kg.
